Patent publication US9926271B2, “Octahydrocyclopentapyrroles, their preparation and use” (The Trustees of Columbia University in the City of New York, priority 2013, dated 2018)

What was measured:
RBP4-TTR interaction [1] = biological target: T1, RBP4-TTR interaction (Homo sapiens, UniProt P02753); assay: TR-FRET (HTRF) assay for retinol-induced RBP4-TTR interaction; format: biochemical; parameters: human RBP4 fragment (amino acids 19-201); host or cells: Gold(DE3)pLysS E. coli strain (Stratagene), pMAL-c4x vector; conditions: in the presence of 1 μM retinol; read-out: HTRF assay for antagonists of RBP4-TTR interaction: IC50
Source text: TR-FRET Assay for Retinol-Induced RBP4-TTR Interaction
Binding of a desired RBP4 antagonist displaces retinol and induces hindrance for RBP4-TTR interaction resulting in the decreased FRET signal (FIG. 7). Bacterially expressed MBP-RBP4 and untagged TTR were used in this assay. […] Following cell lysis, recombinant RBP4 was purified from the soluble fraction using the ACTA FPLC system (GE Healthcare) equipped with the 5-ml the MBP Trap HP column. Human untagged TTR was purchased from Calbiochem. Untagged TTR was labeled directly with Eu^3+ Cryptate-NHS using the HTRF Cryptate Labeling kit from CisBio following the manufacturer's recommendations. HTRF assay was performed in white low volume 384 well plates (Greiner-Bio) in a final assay volume of 16 μl per well. The reaction buffer contained 10 mM Tris-HCl pH 7.5, 1 mM DTT, 0.05% NP-40, 0.05% Prionex, 6% glycerol, and 400 mM RE. […] Titration of test compounds in this assay was conducted in the presence of 1 μM retinol. All reactions were assembled in the dark under dim red light and incubated overnight at +4° C. wrapped in aluminum foil. TR-FRET signal was measured in the SpectraMax M5e Multimode Plate Reader (Molecular Device). Fluorescence was excited at 337 nm and two readings per well were taken: Reading 1 for time-gated energy transfer from Eu(K) to d2 (337 nm excitation, 668 nm emission, counting delay 75 microseconds, counting window 100 microseconds) and Reading 2 for Eu(K) time-gated fluorescence (337 nm excitation, 620 nm emission, counting delay 400 microseconds, counting window 400 microseconds). The TR-FRET signal was expressed as the ratio of fluorescence intensity: Flu665/Flu620×10,000.

RBP4 [2] = biological target: T2, RBP4 (Homo sapiens, UniProt P02753); assay: Scintillation proximity RBP4 binding assay (SPA); parameters: Untagged human RBP4 purified from urine of tubular proteinuria patients; purchased Fitzgerald Industries International; host or cells: urine of tubular proteinuria patients; conditions: 10 nM 3H-Retinol, 50 nM biotinylated RBP4
Protocol: Scintillation Proximity RBP4 Binding Assay
Untagged human RBP4 purified from urine of tubular proteinuria patients was purchased from Fitzgerald Industries International. It was biotinylated using the EZ-Link Sulfo-NHS-LC-Biotinylation kit from Pierce following the manufacturer's recommendations. Binding experiments were performed in 96-well plates (OptiPlate, PerkinElmer) in a final assay volume of 100 μl per well in SPA buffer (1×PBS, pH 7.4, 1 mM EDTA, 0.1% BSA, 0.5% CHAPS). The reaction mix contained 10 nM ^3H-Retinol (48.7 Ci/mmol; PerkinElmer), 0.3 mg/well Streptavidin-PVT beads, 50 nM biotinylated RBP4 and a test compound. Nonspecific binding was determined in the presence of 20 μM of unlabeled retinol. The reaction mix was assembled in the dark under dim red light. The plates were sealed with clear tape (TopSeal-A: 96-well microplate, PerkinElmer), wrapped in the aluminum foil, and allowed to equilibrate 6 hours at room temperature followed by overnight incubation at +4° C. Radiocounts were measured using a TopCount NXT counter (Packard Instrument Company).

RBP4 [3] = biological target: T2, RBP4; conditions: cited from earlier work
RBP4-TTR interaction [4] = biological target: T1, RBP4-TTR interaction; conditions: cited from earlier work
serum RBP4 and retinol = conditions: in vivo; cited from earlier work
Abca4−/− mice = conditions: animal model of excessive bisretinoid accumulation; cited from earlier work
[5] = test system: retinal pigment epithelium cells; conditions: many cell types, including the retinal pigment epithelium cells; cited from earlier work
mice = conditions: cited from earlier work

Row | Compound | IC50 (RBP4-TTR interaction [1]) [nM] | IC50 (RBP4 [2]) [nM] | also measured
1 | O=C(O)c1cc(C(F)(F)F)nc(N2C[C@H]3C[C@@H](c4ccccc4C(F)(F)F)C[C@H]3C2)n1 [Compound 65, 6-(Trifluoromethyl)-2-((3aR,5r,6aS)-5-(2-(trifluoromethyl)phenyl)hexahydrocyclopenta[c]pyrrol-2(1H)-yl)pyrimidine-4-carboxylic Acid] | 88 | 9.5 | –
2 | Cc1cc(C(=O)O)nc(N2C[C@H]3C[C@@H](c4ccccc4C(F)(F)F)C[C@H]3C2)c1 [Compound 69, 4-Methyl-6-((3aR,5r,6aS)-5-(2-(trifluoromethyl)phenyl)hexahydrocyclopenta[c]pyrrol-2(1H)-yl)picolinic Acid] | 295 | 14 | –
3 | Cc1cc(C(=O)O)cc(N2C[C@H]3C[C@@H](c4ccccc4C(F)(F)F)C[C@H]3C2)n1 [Compound 70, 2-Methyl-6-((3aR,5r,6aS)-5-(2-(trifluoromethyl)phenyl)hexahydrocyclopenta[c]pyrrol-2(1H)-yl)isonicotinic Acid] | 229 | 53.2 | –
4 | O=C(O)c1cccnc1N1C[C@H]2C[C@@H](c3ccccc3C(F)(F)F)C[C@H]2C1 [Compound 71, 2-((3aR,5r,6aS)-5-(2-(Trifluoromethyl)phenyl)hexahydrocyclopenta[c]pyrrol-2(1H)-yl)nicotinic Acid] | 382 | 43.8 | –
5 | Cc1cc(C(=O)O)nc(N2C[C@H]3C[C@@H](c4cc(F)ccc4C(F)(F)F)C[C@H]3C2)n1 [Compound 72, 2-((3aR,5r,6aS)-5-(5-Fluoro-2-(trifluoromethyl)phenyl)hexahydrocyclopenta[c]pyrrol-2(1H)-yl)-6-methylpyrimidine-4-carboxylic Acid] | 49.2 | 54.3 | –
6 | Cc1cc(NC(=O)N2C[C@H]3C[C@@H](c4ccccc4C(F)(F)F)C[C@H]3C2)c(C(=O)O)cn1 [Compound 73, 6-Methyl-4-((3aR,5r,6aS)-5-(2-(trifluoromethyl)phenyl)octahydrocyclopenta[c]pyrrole-2-carboxamido)nicotinic Acid] | – | 23.9 | –
7 | Cc1nc(N2C[C@H]3C[C@@H](c4ccccc4C(F)(F)F)C[C@H]3C2)nc(C(=O)O)c1C [Compound 74, 5,6-Dimethyl-2-((3aR,5r,6aS)-5-(2-(trifluoromethyl)phenyl)hexahydrocyclopenta[c]pyrrol-2(1H)-yl)pyrimidine-4-carboxylic Acid] | 123 | 48.7 | –
8 | CC1=C(/C=C/C(C)=C/C=C/C(C)=C/C(=O)Nc2ccc(O)cc2)C(C)(C)CCC1 [fenretinide, N-(4-hydroxy-phenyl)retinamide] | – | – | binding to RBP4, displacement of all-trans retinol (RBP4 [3]): bind to RBP4; RBP4-TTR interaction (RBP4-TTR interaction [4]): disrupt the RBP4-TTR interaction; serum RBP4 and retinol (serum RBP4 and retinol): reduce serum RBP4 and retinol; A2E production (Abca4−/− mice): reduced A2E production; induction of apoptosis [5]: extremely active inducer of apoptosis; formation of hemangiosarcomas (mice): stimulate formation of hemangiosarcomas

Continued, in another order:

Row | IC50 (RBP4-TTR interaction [1]) [nM] | IC50 (RBP4 [2]) [nM] | Compound | also measured
9 | 86.7 | 14.3 | COc1cc(C(=O)O)nc(N2C[C@H]3C[C@@H](c4ccccc4C(F)(F)F)C[C@H]3C2)n1 [Compound 62, 6-Methoxy-2-((3aR,5r,6aS)-5-(2-(trifluoromethyl)phenyl)hexahydrocyclopenta[c]pyrrol-2(1H)-yl)pyrimidine-4-carboxylic Acid] | –
10 | 203 | 158 | CC(C)c1cc(C(=O)O)nc(N2C[C@H]3C[C@@H](c4ccccc4C(F)(F)F)C[C@H]3C2)n1 [Compound 63, 6-Isopropyl-2-((3aR,5r,6aS)-5-(2-(trifluoromethyl)phenyl)hexahydrocyclopenta[c]pyrrol-2(1H)-yl)pyrimidine-4-carboxylic Acid] | –
11 | 79.6 | 27.2 | O=C(O)c1ccnc(N2C[C@H]3C[C@@H](c4ccccc4C(F)(F)F)C[C@H]3C2)n1 [Compound 64, 2-((3aR,5r,6aS)-5-(2-(Trifluoromethyl)phenyl)hexahydrocyclopenta[c]pyrrol-2(1H)-yl)pyrimidine-4-carboxylic Acid] | –
12 | 596 | 90 | Cc1cnc(N2C[C@H]3C[C@@H](c4ccccc4C(F)(F)F)C[C@H]3C2)nc1C(=O)O [Compound 66] | –
13 | 276 | 25.9 | O=C(O)c1nc(N2C[C@H]3C[C@@H](c4ccccc4C(F)(F)F)C[C@H]3C2)ncc1F [Compound 67] | –
14 | 1860 | 172 | O=C(O)c1cnc(N2C[C@H]3C[C@@H](c4ccccc4C(F)(F)F)C[C@H]3C2)nc1 [Compound 68] | –
